These results are taken from patent publication US9266904B2, “6-bridged heteroaryldihydropyrimidines for the treatment and prophylaxis of hepatitis B virus infection” (priority 2013, dated 2016).

Data set [1] has as its system CYP3A4. As to conditions: human, 24 h.
Protocol: Human cryopreserved hepatocytes (Life Technologies, Carlsbad, USA) were thawed and cultured in collagen I coated 96-well plates with a density of 52,000 cells/well. After attachment, medium was changed and cells were pre-cultured overnight in hepatocyte maintenance medium (HMM; Lonza, Switzerland).
Test compounds were dosed to the cells next morning at an indicated concentration (up to 10 μM) in HMM culture media containing gentamycin and a constant 0.1% DMSO. Similarly, dilutions of the positive inducer compounds omeprazole (prototypical inducer of human CYP1A2; final concentrations: 1 and 10 μM), phenobarbital (prototypical inducer of human CYP2B6; final concentrations: 100 and 1000 μM) and rifampicin (prototypical inducer of human CYP3A4; final concentrations: 1 and 10 μM) were prepared from 1000 fold DMSO stock solutions in HMM containing gentamycin. Medium change was then performed and cells were exposed for 24 hours to test compounds, positive inducer compounds, or vehicle (0.1% DMSO), respectively.
At the end of the compound exposure period, medium was removed and cells lysed using 100 μL/well MagNA Pure LC RNA isolation tissue lysis buffer (Roche Diagnostics AG, Rotkreuz, Switzerland). Plates were then sealed and frozen at −80° C. until further workup.
mRNA isolation was performed using the MagNA Pure 96 system (Roche Diagnostics AG, Rotkreuz, Switzerland) and the respective cellular RNA large volume kit (Roche Diagnostics AG, Rotkreuz, Switzerland) from thawed samples diluted 1:1 with PBS. The volume of the cell lysis and an elution volume of 100 μL were used. 20 μL of the resulting mRNA suspension was then used for reverse transcription using 20 μL of the transcript or first stand cDNA synthesis kit (Roche prime Supply, Mannheim, Germany). The resulting cDNA was diluted with 40 μL of H2O before using for qRT-PCR. qRT-PCR was performed by using the forward and the reverse primer, the corresponding UPL (all from Microsynth, Balgach, Switzerland) and the Taqman Fast advanced master mix (Applied Biosystems), on an ABI 7900 machine (Applied Biosystems).
qRT-PCR Ct-values for the respective P450s were put into relation to the Ct-value of RN18S1 (microsynth, Balgach, Switzerland) of the same sample. Doing so, a respective Δct-value was calculated. Using the average of all Δct-values for the vehicle control samples, a ΔΔct-value was calculated for each sample (ΔΔct-value(sample)=Δct-value(sample)−average of Δct-value of all vehicle controls). The fold induction of the respective sample was calculated as 2^(−ΔΔct). The individual fold induction values were then averaged per treatment condition (usually n=3 biological replicates).
Relative induction values to the respective positive inducer compound condition (10 μM omeprazole for CYP1A2; 1000 μM Phenobarbital for CYP2B6; 10 μM rifampicin for CYP3A4) were then calculated from the fold induction values as follows: Relative induction(%)=100×(T−V)/(P−V)
T: fold induction of test compound condition
P: fold induction of positive inducer compound
V: fold induction of vehicle controls
Data set [2] relates to HBV replication in HepG2.2.15 cells. The experiment in a line: Anti-HBV activity in vitro in HepG2.2.15 cells (extracellular HBV DNA by qPCR). In kind it is cell-based. As to conditions: Hepatitis B virus, HepG2.2.15, Anti-HBV activity in HepG2.2.15 cells; read-out: EC50. A digest of the protocol:
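EC50 is derived from qPCR of extracellular viral DNA in culture supernatant after 5-day compound exposure. Cells (HepG2.2.15, stably carrying the HBV genome) were plated and incubated overnight at 37 °C before half-log dilution series were added at 0.5% final DMSO.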

The nature of data set [3]: Human microsomal clearance assay. As to conditions: human, 1 μM, pH 7.4. It counts as in vitro ADME. The method, boiled down:
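Liver microsomes (0.5 mg/mL protein) were incubated with 1 μM compound at 37 °C, pH 7.4 phosphate, with an NADPH-regenerating system. Samples at 0-30 min were quenched and measured by LC-MS/MS for parent loss. No-NADPH controls were included.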

A short description of data set [4]: Lyophilisation solubility assay (Lysa). It counts as physicochemical. As to conditions: pH 6.5, aqueous buffer, thermodynamic from solid. The method, boiled down:
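DMSO was evaporated from 10 mM stocks, and residues were taken up in 0.05 M phosphate buffer pH 6.5, stirred 1 h, shaken 2 h and left overnight. Filtrates were quantified by UV or HPLC-UV against a four-point calibration, in duplicate. Values are in μg/ml, with a lower-bound value when >80% dissolved.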

Data set [5] can be described thus: Cytotoxicity (CCK-8 cell viability) and selectivity index. It counts as cell-based, human. As to conditions: human, HepDE19 cells; cytotoxicity, concentration resulting in death of 50% of host cells. A digest of the protocol: (§1)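 HepDE19 cells (5×10^3/well) were treated with compounds as for the EC50 runs and, after 5 days, given CCK-8 for 2 h at 37° C. Absorbance was read at OD450 and OD630, and CC50 was taken as the concentration killing 50% of host cells.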

The test system of data set [6] is HepDE19 cells. Described as above. It counts as cell-based, human. As to conditions: CC50 value/EC50 value. A digest of the protocol:
as §1

Values after ≈ are worked out from the molar mass of the structure shown. A value given as a limit tells only on which side of the number the result lay.

The term EC50 denotes the concentration needed to bring the measured effect to its halfway point. Take `COC(=O)C1=C(CN2C3COCC2c2cn[nH]c2C3)NC(c2nccs2)=N[C@H]1c1ccc(F)cc1Cl` (stereo partly drawn) [Example 31, (R)-4-(2-Chloro-4-fluoro-phenyl)-6-(10-oxa-4,5,12-triaza-tricyclo[6.3.1.0*2,6*]dodeca-2(6),3-dien-12-ylmethyl)-2-thiazol-2-yl-1,4-dihydro-pyrimidine-5-carboxylic acid methyl ester]: the “% of Positive control (10 μM Rifampicin)” value in data set [1] came out at 25%. Besides, the EC50 in data set [2] was 35 nM.

By solubility (thermodynamic) is commonly meant solubility found after equilibrating the solid with the medium. As usually defined, the CC50 is the concentration giving 50% cytotoxicity. A lower CC50 goes with harm at low concentration. Molecule `COC(=O)C1=C(CN2C3COCC2C(F)(F)[C@H](CC(=O)O)C3)NC(c2nccs2)=N[C@H]1c1ccc(F)cc1Cl` (stereo partly drawn) [Example 126, 2-[(7S)-9-[[(4R)-4-(2-chloro-4-fluoro-phenyl)-5-methoxycarbonyl-2-thiazol-2-yl-1,4-dihydropyrimidin-6-yl]methyl]-6,6-difluoro-3-oxa-9-azabicyclo[3.3.1]nonan-7-yl]acetic acid] gave a CLh in data set [3] of 0 mL/min/kg. Further, the thermodynamic solubility in data set [4] was over 605 µg/mL. The CC50 at 5 days in data set [5] is over 100000 nM. Besides, the “Selectivity index (CC50/EC50)” value in data set [6] is over 9709. Moreover, in data set [1], the “% of Positive control (10 μM Rifampicin)” value is given as 17%. For the same molecule, the EC50 in data set [2] stood at 10.3 nM.

The molecule `CCOC(=O)C1=C(CN2[C@@H]3COC[C@H]2C[C@H](CC(=O)O)C3)NC(c2nccs2)=N[C@H]1c1cccc(F)c1Cl` [Example 66, Exo-2-[(1S,5R)-9-[[(4R)-4-(2-chloro-3-fluoro-phenyl)-5-ethoxycarbonyl-2-thiazol-2-yl-1,4-dihydropyrimidin-6-yl]methyl]-3-oxa-9-azabicyclo[3.3.1]nonan-7-yl]acetic acid] returned a CLh in data set [3] of 3.2 mL/min/kg. Further, the solubility (thermodynamic) in data set [4] was found to be 390 µg/mL (≈ 693 µM). Besides, in data set [1], the “% of Positive control (10 μM Rifampicin)” value was determined as 6.2%. In addition, the EC50 in data set [2] is 3.6 nM.

Molecule `COC(=O)C1=C(CN2[C@@H]3C[C@H](CC(=O)O)C[C@H]2C(F)(F)C3)NC(c2nccs2)=N[C@H]1c1ccccc1Cl` [Example 90, 2-[(1R,3S,5S)-8-[[(4R)-4-(2-chlorophenyl)-5-methoxycarbonyl-2-thiazol-2-yl-1,4-dihydropyrimidin-6-yl]methyl]-6,6-difluoro-8-azabicyclo[3.2.1]octan-3-yl]acetic acid] yielded a CLh in data set [3] of 1.5 mL/min/kg. Moreover, in data set [4], the thermodynamic solubility was 230 µg/mL (≈ 417 µM). Also, the “% of Positive control (10 μM Rifampicin)” value in data set [1] is given as 37%. Moreover, in data set [2], the EC50 turned out to be 3.5 nM.

The molecule `COC(=O)C1=C(CN2[C@@H]3C[C@H](CC(=O)O)C[C@H]2C(F)(F)C3)NC(c2nccs2)=N[C@H]1c1cccc(F)c1Cl` [Example 88, 2-[(1R,3S,5S)-8-[[(4R)-4-(2-chloro-3-fluoro-phenyl)-5-methoxycarbonyl-2-thiazol-2-yl-1,4-dihydropyrimidin-6-yl]methyl]-6,6-difluoro-8-azabicyclo[3.2.1]octan-3-yl]acetic acid] registered a CLh in data set [3] of 0.2 mL/min/kg. The molecule also had a solubility (thermodynamic) in data set [4] of 120 µg/mL (≈ 211 µM). Further, in data set [5], the CC50 at 5 days was determined as 52000 nM. The “Selectivity index (CC50/EC50)” value in data set [6] stood at 39662. Also, the “% of Positive control (10 μM Rifampicin)” value in data set [1] turned out to be 39%. In addition, in data set [2], the EC50 was 1.3 nM.

On to `COC(=O)C1=C(CN2C3COCC2CC(NC(C)=O)C3)NC(c2nccs2)=N[C@H]1c1ccc(F)cc1Cl` (stereo partly drawn) [Example 35, (R)-6-(7-Acetylamino-3-oxa-9-aza-bicyclo[3.3.1]non-9-ylmethyl)-4-(2-chloro-4-fluoro-phenyl)-2-thiazol-2-yl-1,4-dihydro-pyrimidine-5-carboxylic acid methyl ester], for which the CLh in data set [3] came to 6.4 mL/min/kg. Besides, in data set [5], the CC50 at 5 days is 50000 nM. Further, the “Selectivity index (CC50/EC50)” value in data set [6] is 7813. Further, the “% of Positive control (10 μM Rifampicin)” value in data set [1] is on record as 20%. Besides, in data set [2], the EC50 was 6 nM.

In data set [4], `COC(=O)C1=C(CN2C3COCC2CN(C)C3)NC(c2nccs2)=N[C@H]1c1ccc(F)cc1Cl` [Example 12, (R)-4-(2-Chloro-4-fluoro-phenyl)-6-(7-methyl-3-oxa-7,9-diaza-bicyclo[3.3.1]non-9-ylmethyl)-2-thiazol-2-yl-1,4-dihydro-pyrimidine-5-carboxylic acid methyl ester] returned a thermodynamic solubility of over 597 µg/mL. Besides, the “% of Positive control (10 μM Rifampicin)” value in data set [1] stood at 21%. Further, in data set [2], the EC50 was found to be 566 nM.

`COC(=O)C1=C(CN2C3COCC2C(NC(C)=O)C3)NC(c2nccs2)=N[C@H]1c1ccc(F)cc1Cl` (stereo partly drawn) [Example 48, Methyl (4R)-6-[(6-acetamido-3-oxa-8-azabicyclo[3.2.1]octan-8-yl)methyl]-4-(2-chloro-4-fluoro-phenyl)-2-thiazol-2-yl-1,4-dihydropyrimidine-5-carboxylate] came in with a CLh in data set [3] of 4.8 mL/min/kg. This molecule also displayed a thermodynamic solubility in data set [4] of 100 µg/mL (≈ 187 µM). For the same molecule, the “% of Positive control (10 μM Rifampicin)” value in data set [1] stood at 17%. Moreover, the EC50 in data set [2] came to 19.4 nM.

`CCOC(=O)C1=C(CN2[C@@H]3COC[C@H]2C[C@H](CC(=O)O)C3)NC(c2nccs2)=N[C@H]1c1cccc(F)c1Br` [Example 68, Exo-2-[(1S,5R)-9-[[(4R)-4-(2-bromo-3-fluoro-phenyl)-5-ethoxycarbonyl-2-thiazol-2-yl-1,4-dihydropyrimidin-6-yl]methyl]-3-oxa-9-azabicyclo[3.3.1]nonan-7-yl]acetic acid]: in data set [3], the CLh worked out at 3.5 mL/min/kg. The molecule also came in with a solubility (thermodynamic) in data set [4] of 320 µg/mL (≈ 527 µM). In data set [1], the “% of Positive control (10 μM Rifampicin)” value is reported as 7.7%. Moreover, the EC50 in data set [2] turned out to be 3.8 nM.

As for `COC(=O)C1=C(CN2[C@@H]3COC[C@H]2C[C@@H](NS(N)(=O)=O)C3)NC(c2nccs2)=N[C@H]1c1ccc(F)cc1Cl` [Example 56, Methyl (4R)-4-(2-chloro-4-fluoro-phenyl)-6-[[(1R,5S)-7-endo-(sulfamoylamino)-3-oxa-9-azabicyclo[3.3.1]nonan-9-yl]methyl]-2-thiazol-2-yl-1,4-dihydropyrimidine-5-carboxylate], in data set [3], the CLh came to 6.1 mL/min/kg. In data set [5], this molecule showed a cytotoxic concentration (CC50) at 5 days of 43000 nM. Further, in data set [6], the “Selectivity index (CC50/EC50)” value was determined as 9766. In addition, the “% of Positive control (10 μM Rifampicin)” value in data set [1] was determined as 23%. For the same molecule, the EC50 in data set [2] came out at 4.4 nM.

In the case of `COC(=O)C1=C(CN2CC3CC(C2)O3)NC(c2nccs2)=N[C@H]1c1ccc(F)cc1Cl` [Example 38, (R)-4-(2-Chloro-4-fluoro-phenyl)-6-(6-oxa-3-aza-bicyclo[3.1.1]hept-3-ylmethyl)-2-thiazol-2-yl-1,4-dihydro-pyrimidine-5-carboxylic acid methyl ester], the “% of Positive control (10 μM Rifampicin)” value in data set [1] worked out at 35%. Also, the EC50 in data set [2] was 114 nM.

In the case of `COC(=O)C1=C(CN2[C@H]3COC[C@@H]2[C@H](CC(=O)O)C3)NC(c2nccs2)=N[C@H]1c1ccc(F)cc1Br` [Example 64, 2-[(1R,5S,6S)-8-[[(4R)-4-(2-bromo-4-fluoro-phenyl)-5-methoxycarbonyl-2-thiazol-2-yl-1,4-dihydropyrimidin-6-yl]methyl]-3-oxa-8-azabicyclo[3.2.1]octan-6-yl]acetic acid], the CLh in data set [3] worked out at 2.6 mL/min/kg. In addition, in data set [4], the solubility (thermodynamic) is 660 µg/mL (≈ 1140 µM). In data set [5], the CC50 at 5 days is over 100000 nM. Besides, in data set [6], the “Selectivity index (CC50/EC50)” value is on record as over 6024. In addition, in data set [2], the EC50 was 16.6 nM.

In data set [3], `COC(=O)C1=C(CN2C3CC(F)(F)C2C[C@@](O)(CC(=O)O)C3)NC(c2nccs2)=N[C@@H]1c1ccc(F)c(F)c1C` (single isomer, unassigned) [Example 118] gave a CLh of 3.1 mL/min/kg. Moreover, in data set [4], the thermodynamic solubility was found to be 112 µg/mL (≈ 192 µM). The molecule also displayed a 50% cytotoxic concentration (CC50) at 5 days in data set [5] of 45000 nM. Besides, in data set [6], the “Selectivity index (CC50/EC50)” value amounted to 8960. In addition, the EC50 in data set [2] was determined as 5 nM.

As for `CCOC(=O)C1=C(CN2C3CCC2(C(=O)O)COC3)NC(c2nccs2)=N[C@H]1c1cccc(F)c1Cl` (stereo partly drawn) [Example 83, 8-[[(4R)-4-(2-chloro-3-fluoro-phenyl)-5-ethoxycarbonyl-2-thiazol-2-yl-1,4-dihydropyrimidin-6-yl]methyl]-3-oxa-8-azabicyclo[3.2.1]octane-5-carboxylic acid], the CLh in data set [3] was found to be 1.6 mL/min/kg. The molecule also registered a thermodynamic solubility in data set [4] of 564 µg/mL (≈ 1050 µM). The molecule further came in with a CC50 at 5 days in data set [5] of 65000 nM. In data set [6], the “Selectivity index (CC50/EC50)” value is 7558. The EC50 in data set [2] was found to be 8.6 nM.

In data set [3], `COC(=O)C1=C(CN2C3CC(F)(F)C2C[C@@](O)(CC(=O)O)C3)NC(c2nccs2)=N[C@H]1c1cccc(F)c1Cl` (single isomer, unassigned) [Example 120] returned a CLh of 0 mL/min/kg. In addition, the thermodynamic solubility in data set [4] is 317 µg/mL (≈ 542 µM). For the same molecule, the CC50 at 5 days in data set [5] came to 87000 nM. For the same molecule, the “Selectivity index (CC50/EC50)” value in data set [6] was 9083. Also, the EC50 in data set [2] is 9.6 nM.
